Measured values: patent publication US20100069380A1 (published 2010)

Nc1ccc(Sc2c(O)c3c(=O)n(-c4ccccc4)c4ccccc4c3oc2=O)cc1
melting point: > 300 °C
